Assay [1] deals with T1, human Apelin receptor (Homo sapiens, UniProt P35414).
T1 sequence (P35414 1-380): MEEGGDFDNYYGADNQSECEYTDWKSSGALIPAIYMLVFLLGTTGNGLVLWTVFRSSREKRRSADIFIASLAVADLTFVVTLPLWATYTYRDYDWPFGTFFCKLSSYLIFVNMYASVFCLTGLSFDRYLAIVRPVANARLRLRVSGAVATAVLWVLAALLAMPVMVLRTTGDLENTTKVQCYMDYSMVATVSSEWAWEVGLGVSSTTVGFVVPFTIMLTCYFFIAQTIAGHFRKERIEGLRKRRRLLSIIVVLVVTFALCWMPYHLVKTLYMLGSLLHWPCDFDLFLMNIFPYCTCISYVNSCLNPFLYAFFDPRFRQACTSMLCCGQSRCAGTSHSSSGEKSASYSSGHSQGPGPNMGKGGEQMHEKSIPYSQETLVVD
In words: cAMP accumulation assay (HTRF), functional agonism of human Apelin receptors. Conditions: for Emax: CHO; for EC50: read-out: pEC50 (converted); for pEC50: pEC50, Human Apelin agonist cAMP assay. It counts as cell-based. An excerpt:
cAMP functional assay. cAMP production was quantified using the Homogeneous Time-Resolved Fluorescence (HTRF) cAMP dynamic-2 assay (Cisbio, France).
Background: Changes in cAMP serve as a functional read-out for many G protein-coupled receptors.

For assay [2], the target named is T2, human Apelin receptor (Homo sapiens, UniProt P35414).
T2 construct: host or cells: CHO-K1 cells
As to the kind of experiment: β-arrestin accumulation assay, functional agonism of human Apelin receptors. In kind it is cell-based. On the procedure:
β-arrestin assay. […] After 16 h incubation at 37° C. media was removed and cells were incubated at 37° C. for 90 min in serum free media containing increasing concentrations of test agonist. The assay reaction was stopped by adding detection reagent (DiscoveRx) and incubation for 60 min in the dark. Levels of receptor activation were then measured on a PheraStar fluorescence plate reader (BMG LabTech) and EC50 values were determined using Graphpad Prism.
T2 sequence (P32121 whole entry partner, one chain of several): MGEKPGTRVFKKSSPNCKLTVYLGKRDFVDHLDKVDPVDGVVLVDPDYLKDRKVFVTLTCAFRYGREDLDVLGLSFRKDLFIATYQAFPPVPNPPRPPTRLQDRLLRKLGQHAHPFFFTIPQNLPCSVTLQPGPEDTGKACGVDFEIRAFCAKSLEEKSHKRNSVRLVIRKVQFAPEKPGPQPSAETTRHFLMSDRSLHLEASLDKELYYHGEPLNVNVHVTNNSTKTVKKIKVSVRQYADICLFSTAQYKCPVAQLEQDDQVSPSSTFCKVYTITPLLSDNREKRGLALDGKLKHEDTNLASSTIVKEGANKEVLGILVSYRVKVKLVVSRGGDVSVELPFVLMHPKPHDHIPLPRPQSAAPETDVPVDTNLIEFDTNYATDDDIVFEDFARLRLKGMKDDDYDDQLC

The mark [3] stands for this setting: Human Apelin agonist cAMP assay, CHO cells stably expressing the human Apelin receptor, 3 uM forskolin.
The mark [4] stands for this setting: CHO cells stably expressing the human Apelin receptor, 3 uM forskolin.

pEC50: −log10 of the molar value. Read-outs that look alike come from different tables or passages of the source. Starred links: 1 amine or outer side, 2 acyl side, 3 side chain; linkers in the order of their positions; H or OH if unused. Non-standard residues stand in square brackets, D forms with d. Residues, ends and D or L forms follow the SMILES beside them. *: point of attachment. Ala(piperidin-4-yl) = O=C([C@H](CC1CCN([*:3])CC1)N[*:1])[*:2]; Malonyl(2,2-Me2,histaminyl) = CC(C)(C(=O)NCCc1cnc[nH]1)C(=O)*; Ala(1-imidazolyl) = N[C@@H](Cn1ccnc1)C(=O)O; dBip = N[C@H](Cc1ccc(-c2ccccc2)cc1)C(=O)O; Oic = O=C(O)[C@@H]1C[C@@H]2CCCC[C@@H]2N1; Phe(4-Br) = N[C@@H](Cc1ccc(Br)cc1)C(=O)O; d2Nal = N[C@H](Cc1ccc2ccccc2c1)C(=O)O; X5 = CC(C)(C(=O)NCc1c[nH]cn1)C(=O)*; hArg = N=C(N)NCCCC[C@H](N)C(=O)O; 3Pal = N[C@@H](Cc1cccnc1)C(=O)O; dCha = N[C@H](CC1CCCCC1)C(=O)O; Pip = O=C(O)[C@@H]1CCCCN1; Nle = CCCC[C@H](N)C(=O)O; Aib = CC(C)(N)C(=O)O

`CC(C)C[C@H](NC(=O)[C@@H](CCCNC(=N)N)NC(=O)[C@@H]1CCCN1C(=O)[C@H](CCCCNC(=N)N)NC(=O)[C@H](CCC(N)=O)NC(=O)[C@@H](CCCNC(=N)N)NC(=O)C(C)(C)C(=O)NCCc1c[nH]cn1)C(=O)NC(C)(C)C(=O)N[C@@H](Cc1c[nH]cn1)C(=O)N[C@@H](CC1CCNCC1)C(=O)NCC(=O)N1[C@H](C(=O)N[C@@H](Cc2ccc(Br)cc2)C(=O)N2CCC[C@H]2C(=O)N[C@H](Cc2ccc3ccccc3c2)C(=O)O)C[C@@H]2CCCC[C@@H]21` [Example 23] ({Malonyl(2,2-Me2,histaminyl)}-[dR]Q[hArg]P[dR]L[Aib]H[Ala(piperidin-4-yl)]G[Oic][Phe(4-Br)]P[d2Nal]-OH): the Emax (as a rule, the greatest response seen or fitted, relative to the assay's reference) in assay [1] (read-out: Emax) was found to be 43.4%. In assay [1], the EC50 was 25.1 nM. The pEC50 (usually −log10 of the EC50, conventionally taken in molar units) in assay [2] is < 5.00.
With `CC(C)C[C@H](NC(=O)[C@@H](CCCNC(=N)N)NC(=O)[C@@H]1CCCN1C(=O)[C@H](CCCCNC(=N)N)NC(=O)[C@H](CCC(N)=O)NC(=O)[C@@H](CCCNC(=N)N)NC(=O)C(C)(C)C(=O)NCCc1c[nH]cn1)C(=O)NC(C)(C)C(=O)N[C@@H](Cc1c[nH]cn1)C(=O)N[C@@H](CC1CCNCC1)C(=O)NCC(=O)N1[C@H](C(=O)N[C@@H](Cc2ccc(Br)cc2)C(=O)N2CCC[C@H]2C(=O)N[C@H](CC2CCCCC2)C(=O)O)C[C@@H]2CCCC[C@@H]21` [Example 24] ({Malonyl(2,2-Me2,histaminyl)}-[dR]Q[hArg]P[dR]L[Aib]H[Ala(piperidin-4-yl)]G[Oic][Phe(4-Br)]P[dCha]-OH), in assay [1] (read-out: Emax), the maximal response (Emax) was determined as 87.9%. The EC50 in assay [1] is 31.6 nM. The pEC50 in assay [2] is < 5.00.
In the case of `CC(C)C[C@H](NC(=O)[C@H](CCCNC(=N)N)NC(=O)[C@@H]1CCCN1C(=O)[C@@H](CCCNC(=N)N)NC(=O)[C@H](CCC(N)=O)NC(=O)[C@@H](CCCNC(=N)N)NC(=O)C(C)(C)C(=O)NCCc1c[nH]cn1)C(=O)NC(C)(C)C(=O)N[C@@H](Cc1c[nH]cn1)C(=O)N[C@@H](CC1CCNCC1)C(=O)NCC(=O)N1[C@H](C(=O)N[C@@H](Cc2ccc(Br)cc2)C(=O)N2CCC[C@H]2C(=O)N[C@H](Cc2ccc(-c3ccccc3)cc2)C(=O)O)C[C@@H]2CCCC[C@@H]21` [Example 25] ({Malonyl(2,2-Me2,histaminyl)}-[dR]Q[dR]PRL[Aib]H[Ala(piperidin-4-yl)]G[Oic][Phe(4-Br)]P[dBip]-OH), the Emax in assay [1] (setting [3]) worked out at 92.7%. In addition, the figures for the pEC50 in assay [1] (setting [4]) and in assay [2] were 7.80 and < 5.00, respectively.
On to `CC(C)C[C@H](NC(=O)[C@@H](CCCNC(=N)N)NC(=O)[C@@H]1CCCN1C(=O)[C@H](CCCCNC(=N)N)NC(=O)[C@H](CCC(N)=O)NC(=O)[C@@H](CCCNC(=N)N)NC(=O)C(C)(C)C(=O)NCc1c[nH]cn1)C(=O)NC(C)(C)C(=O)N[C@@H](Cc1c[nH]cn1)C(=O)N[C@@H](CC1CCNCC1)C(=O)NCC(=O)N1[C@H](C(=O)N[C@@H](Cc2ccc(Br)cc2)C(=O)N2CCC[C@H]2C(=O)N[C@H](Cc2ccc(-c3ccccc3)cc2)C(=O)O)C[C@@H]2CCCC[C@@H]21` [Example 27] (X5-[dR]Q[hArg]P[dR]L[Aib]H[Ala(piperidin-4-yl)]G[Oic][Phe(4-Br)]P[dBip]-OH), for which the Emax in assay [1] (read-out: Emax) came to 66.1%. In addition, the EC50 in assay [1] was 6.31 nM. The pEC50 in assay [2] is < 5.00.
For the compound `CC(C)C[C@H](NC(=O)[C@@H](CCCNC(=N)N)NC(=O)[C@@H]1CCCN1C(=O)[C@H](CCCCNC(=N)N)NC(=O)[C@H](CCC(N)=O)NC(=O)[C@@H](CCCNC(=N)N)NC(=O)C(C)(C)C(=O)NCCc1cnc[nH]1)C(=O)NC(C)(C)C(=O)N[C@@H](Cn1ccnc1)C(=O)N[C@@H](CC1CCNCC1)C(=O)NCC(=O)N1[C@H](C(=O)N[C@@H](Cc2ccc(Br)cc2)C(=O)N2CCC[C@H]2C(=O)N[C@H](Cc2ccc(-c3ccccc3)cc2)C(=O)O)C[C@@H]2CCCC[C@@H]21` [Example 28] ({Malonyl(2,2-Me2,histaminyl)}-[dR]Q[hArg]P[dR]L[Aib][Ala(1-imidazolyl)][Ala(piperidin-4-yl)]G[Oic][Phe(4-Br)]P[dBip]-OH), in assay [1] (setting [3]), the Emax came to 27.4%. Further, the figures for the pEC50 in assay [1] (setting [4]) and in assay [2] were 7.80 and < 5.00, respectively.
In assay [1] (setting [3]), `CC(C)C[C@H](NC(=O)[C@@H](CCCNC(=N)N)NC(=O)[C@@H]1CCCCN1C(=O)[C@H](CCCCNC(=N)N)NC(=O)[C@H](CCC(N)=O)NC(=O)[C@@H](CCCNC(=N)N)NC(=O)C(C)(C)C(=O)NCCc1cnc[nH]1)C(=O)NC(C)(C)C(=O)N[C@@H](Cc1c[nH]cn1)C(=O)N[C@@H](CC1CCNCC1)C(=O)N[C@@H](C)C(=O)N1[C@H](C(=O)N[C@@H](Cc2ccc(Br)cc2)C(=O)N2CCC[C@H]2C(=O)N[C@H](Cc2ccc(-c3ccccc3)cc2)C(=O)O)C[C@@H]2CCCC[C@@H]21` [Example 29] ({Malonyl(2,2-Me2,histaminyl)}-[dR]Q[hArg][Pip][dR]L[Aib]H[Ala(piperidin-4-yl)]A[Oic][Phe(4-Br)]P[dBip]-OH) yielded an Emax of 69.7%. Besides, the results for the pEC50 in assay [1] (setting [4]) and in assay [2] were 8.60 and < 5.00, respectively.
As to `CC(C)C[C@H](NC(=O)[C@@H](CCCNC(=N)N)NC(=O)[C@@H]1CCCCN1C(=O)[C@H](CCCNC(=N)N)NC(=O)[C@H](CCC(N)=O)NC(=O)[C@@H](CCCNC(=N)N)NC(=O)C(C)(C)C(=O)NCCc1cnc[nH]1)C(=O)NC(C)(C)C(=O)N[C@@H](Cc1c[nH]cn1)C(=O)N[C@@H](CC1CCNCC1)C(=O)NCC(=O)N1[C@H](C(=O)N[C@@H](Cc2ccc(Br)cc2)C(=O)N2CCC[C@H]2C(=O)N[C@H](Cc2ccc(-c3ccccc3)cc2)C(=O)O)C[C@@H]2CCCC[C@@H]21` [Example 30] ({Malonyl(2,2-Me2,histaminyl)}-[dR]QR[Pip][dR]L[Aib]H[Ala(piperidin-4-yl)]G[Oic][Phe(4-Br)]P[dBip]-OH), the Emax in assay [1] (setting [3]) was determined as 106%. For the same compound, the values for the pEC50 in assay [1] (setting [4]) and in assay [2] were 8.30 and < 5.00, respectively.
Turning to `CC(C)C[C@H](NC(=O)[C@@H](CCCNC(=N)N)NC(=O)[C@@H]1CCCCN1C(=O)[C@H](CCCCNC(=N)N)NC(=O)[C@H](CCC(N)=O)NC(=O)[C@@H](CCCNC(=N)N)NC(=O)C(C)(C)C(=O)NCCc1cnc[nH]1)C(=O)NC(C)(C)C(=O)N[C@@H](Cc1cccnc1)C(=O)N[C@@H](CC1CCNCC1)C(=O)NCC(=O)N1[C@H](C(=O)N[C@@H](Cc2ccc(Br)cc2)C(=O)N2CCC[C@H]2C(=O)N[C@H](Cc2ccc(-c3ccccc3)cc2)C(=O)O)C[C@@H]2CCCC[C@@H]21` [Example 31] ({Malonyl(2,2-Me2,histaminyl)}-[dR]Q[hArg][Pip][dR]L[Aib][3Pal][Ala(piperidin-4-yl)]G[Oic][Phe(4-Br)]P[dBip]-OH), in assay [1] (read-out: Emax), the Emax was 75.4%. Besides, the EC50 in assay [1] was 10 nM. The pEC50 in assay [2] was < 5.00.
`CCCC[C@H](NC(=O)[C@@H]1C[C@@H]2CCCC[C@@H]2N1C(=O)CNC(=O)[C@H](CC1CCNCC1)NC(=O)[C@H](Cc1ccc(Br)cc1)NC(=O)C(C)(C)NC(=O)[C@H](CC(C)C)NC(=O)[C@@H](CCCNC(=N)N)NC(=O)[C@@H]1CCCN1C(=O)[C@H](CCCCNC(=N)N)NC(=O)[C@H](CCC(N)=O)NC(=O)[C@@H](CCCNC(=N)N)NC(=O)C(C)(C)C(=O)NCCc1cnc[nH]1)C(=O)N1CCC[C@H]1C(=O)N[C@H](Cc1ccc(-c2ccccc2)cc1)C(=O)O` [Example 33] ({Malonyl(2,2-Me2,histaminyl)}-[dR]Q[hArg]P[dR]L[Aib][Phe(4-Br)][Ala(piperidin-4-yl)]G[Oic][Nle]P[dBip]-OH) had an Emax in assay [1] (setting [3]) of 63%. Moreover, the negative logarithm of the EC50 (pEC50) in assay [1] (setting [4]) is 7.60; in assay [2], < 5.00.
In assay [1] (setting [3]), `CCCC[C@H](NC(=O)[C@@H]1C[C@@H]2CCCC[C@@H]2N1C(=O)CNC(=O)[C@H](CC1CCNCC1)NC(=O)[C@H](Cc1ccc(Br)cc1)NC(=O)C(C)(C)NC(=O)[C@H](CC(C)C)NC(=O)[C@H](CCCNC(=N)N)NC(=O)[C@@H]1CCCN1C(=O)[C@@H](CCCNC(=N)N)NC(=O)[C@H](CCC(N)=O)NC(=O)[C@@H](CCCNC(=N)N)NC(=O)C(C)(C)C(=O)NCCc1cnc[nH]1)C(=O)N1CCC[C@H]1C(=O)N[C@H](Cc1ccc(-c2ccccc2)cc1)C(=O)O` [Example 34] ({Malonyl(2,2-Me2,histaminyl)}-[dR]Q[dR]PRL[Aib][Phe(4-Br)][Ala(piperidin-4-yl)]G[Oic][Nle]P[dBip]-OH) registered an Emax of 60.6%. Also, the pEC50 in assay [1] (setting [4]) is 7.60; in assay [2] it was < 5.00.
In assay [1] (setting [3]), `CC(C)C[C@H](NC(=O)[C@H](CCCNC(=N)N)NC(=O)[C@@H]1CCCN1C(=O)[C@@H](CCCNC(=N)N)NC(=O)[C@H](CCC(N)=O)NC(=O)[C@@H](CCCNC(=N)N)NC(=O)C(C)(C)C(=O)NCCc1cnc[nH]1)C(=O)NC(C)(C)C(=O)N[C@@H](Cc1ccc(Br)cc1)C(=O)N[C@@H](CC1CCNCC1)C(=O)NCC(=O)N1[C@H](C(=O)N[C@@H](Cc2ccccc2)C(=O)N2CCC[C@H]2C(=O)N[C@H](Cc2ccc(-c3ccccc3)cc2)C(=O)O)C[C@@H]2CCCC[C@@H]21` [Example 35] ({Malonyl(2,2-Me2,histaminyl)}-[dR]Q[dR]PRL[Aib][Phe(4-Br)][Ala(piperidin-4-yl)]G[Oic]FP[dBip]-OH) displayed an Emax of 35.3%. In addition, the results for the pEC50 in assay [1] (setting [4]) and in assay [2] were 7.20 and < 5.00, respectively.
